The term DC50 denotes the concentration giving 50% degradation. In general, Dmax refers to the largest share of the target that was removed.

Where two headings read alike, the source gives them in different places. A value given as a limit tells only on which side of the number the result lay.

The record followed here is patent US20250130239A1, “PROTEIN DEGRADER” (University of Dundee, priority 2021, published 2025).

Assay [1] deals with untagged Brd2 and endogenous Brd3 and Brd4. Nature of the assay: Off-target degradation of endogenous BET proteins (western blot) in BromoTag-Brd2 HEK293 cells. In kind it is cell-based, human. The settings on record: 1 nM to 10 μM; 6 h. The method, then:
Dose-response Degradation Assays. All dose-response degradation assays were performed on the genotype verified heterozygous BromoTag-Brd2 HEK293 cell line. Heterozygous BromoTag-Brd2 HEK293 cells were plated at a density of 5×10^5 cells per well of a six healthy plate a day before initiation of the titration experiment. PROTAC compounds were dissolved in DMSO at a concentration of 10 mM, from these stock concentrations, PROTAC compounds were diluted to appropriate concentrations using DMSO in the range of 10 μM-1 nM. The compounds were then added to a 2 mL of DMEM (Invitrogen, Carlsebad, CA, USA) supplemented with 10% (v/v) Fetal bovine serum (FBS) (Thermo Fisher, Waltham, MA, USA) and 1% (v/v) penicillin/streptomycin (pen/strep) (#15140122, Thermo Fisher, Waltham, MA, USA) and added to the cells at initiation of the experiment. Control compounds such as MZ1, cis-MZ1 were similarly dissolved in DMSO to the appropriate concentration. All titration experiment were performed for a total of 6 hours prior to being harvested and were kept at 37° C., 5% CO2, and 95% humidity once treatment was applied until right before harvesting. Cells were washed twice with PBS before being harvested.
Western Blotting. […] Total protein quantity was determined using the BCA protein assay (#23225, Pierce, Rockford, Illinois). Protein concentration was determined using the BCA assay (ThermoFisher Scientific, 23225). […] All western blots were analysed for band intensities using Image Lab from Bio-Rad (LI-COR, Biosciences). The data extracted from these blots were then plotted and analysed using Prism (v. 8.2.0, GraphPad).
Development of a Knock-in Cell Line with BromoTag fused to endogenous Brd2 using CRISPR. […] To this end, the endogenous BET family protein Brd2 was chosen as a model target, due to the availability of well-established antibody for Brd2 detection, and expression of a single protein isoform as well detected band in the western blot (Filippakopoulos, P.; Knapp, S., Nat Rev Drug Discov. 2014, 13 (5), 337-356). […]
On the technique in general: In western blotting, separated proteins are transferred to a membrane and probed.

Another assay deals with T1, BromoTag-Brd2 (Homo sapiens, UniProt O60885+P40337, L387A).
T1 construct: comprising residues 368-440 of human Brd4; Brd2 (endogenous protein, fusion partner in the same polypeptide); eGFP-P2A (upstream marker in the knock-in cassette) (N, cleaved yes); expressed in transfected cells; host or cells: HEK293, heterozygous CRISPR knock-in at the endogenous BRD2 locus
T1 sequence (P40337 whole entry, other chains not shown, the tested form may be a part): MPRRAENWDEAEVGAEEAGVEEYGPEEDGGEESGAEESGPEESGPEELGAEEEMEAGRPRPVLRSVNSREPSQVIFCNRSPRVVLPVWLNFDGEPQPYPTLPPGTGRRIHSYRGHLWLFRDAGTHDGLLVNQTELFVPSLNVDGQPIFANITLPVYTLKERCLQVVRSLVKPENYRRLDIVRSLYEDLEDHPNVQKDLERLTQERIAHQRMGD
Nature of the assay: Dose-response degradation assay (western blot, 6 h) in heterozygous BromoTag-Brd2 HEK293 cells. Format: cell-based. Conditions: for pDC50: second-generation B&H-PROTACs (diastereomeric mixtures), mean (±S.E) of three experiments; for hook effect: at the higher concentrations used, 1-10 μM. As for the experimental part:
Dose-response Degradation Assays. All dose-response degradation assays were performed on the genotype verified heterozygous BromoTag-Brd2 HEK293 cell line. Heterozygous BromoTag-Brd2 HEK293 cells were plated at a density of 5×10^5 cells per well of a six healthy plate a day before initiation of the titration experiment. PROTAC compounds were dissolved in DMSO at a concentration of 10 mM, from these stock concentrations, PROTAC compounds were diluted to appropriate concentrations using DMSO in the range of 10 μM-1 nM. […] Control compounds such as MZ1, cis-MZ1 were similarly dissolved in DMSO to the appropriate concentration. […] Cells were washed twice with PBS before being harvested.
Western Blotting. […] The membranes were blocked for 1 h prior to incubation with the primary antibodies using 5% Milk TBST. […] Following overnight incubation with the primary antibodies at 4° C., the membranes were incubated with secondary antibodies (Anti-rabbit, Abcam AB216773, 1:5000 or anti-mouse, Abcam AB216774, 1:5000) and hFAB™ Rhodamine Anti-Tubulin Antibody (Biorad, 12004165, 1:10000) for one h and then imaged with a Bio-Rad imager (LI-COR Biosciences). All western blots were analysed for band intensities using Image Lab from Bio-Rad (LI-COR, Biosciences). The data extracted from these blots were then plotted and analysed using Prism (v. 8.2.0, GraphPad).

The mark [2] stands for this setting: Ab: Brd2, second-generation B&H-PROTACs, 6 h.
Setting [3] is: Ab: Brd4^BD2 L387A, second-generation B&H-PROTACs, 6 h.
The mark [4] stands for this setting: 6 h, range over the two antibodies.

Consider `CC[C@@H](C(=O)NCCOCCOCCOCC(=O)N[C@H](C(=O)N1C[C@H](O)C[C@H]1C(=O)NCc1ccc(-c2scnc2C)cc1)C(C)(C)C)[C@@H]1N=C(c2ccc(Cl)cc2)c2c(sc(C)c2C)-n2c(C)nnc21` (relative stereo) [ET-MZ1 (19), (2S,4R)-1-((2S,17R*)-(tert-butyl)-17-((S*)-4-(4-chlorophenyl)-2,3,9-trimethyl-6H-thieno[3,2-f][1,2,4]triazolo[4,3-a][1,4]diazepin-6-yl)-4,16-dioxo-6,9,12-trioxa-3,15-diazanonadecanoyl)-4-hydroxy-N-(4-(4-methylthiazol-5-yl)benzyl)pyrrolidine-2-carboxamide], for which, in assay [1], the “off-target degradation of untagged Brd2 or the other endogenous BET proteins” value is on record as “no observable off-target degradation”.
On to `CC[C@@H](C(=O)NCCOCCCOCC(=O)N[C@H](C(=O)N1C[C@H](O)C[C@H]1C(=O)N[C@@H](C)c1ccc(-c2scnc2C)cc1)C(C)(C)C)[C@@H]1N=C(c2ccc(Cl)cc2)c2c(sc(C)c2C)-n2c(C)nnc21` (relative stereo) [ET-ARV-771 (21), (2S,4R)-1-((2S,15R*)-(tert-butyl)-15-((S*)-4-(4-chlorophenyl)-2,3,9-trimethyl-6H-thieno[3,2-f][1,2,4]triazolo[4,3-a][1,4]diazepin-6-yl)-4,14-dioxo-6,10-dioxa-3,13-diazaheptadecanoyl)-4-hydroxy-N—((S)-1-(4-(4-methylthiazol-5-yl)phenyl)ethyl)pyrrolidine-2-carboxamide], for which, on BromoTag-Brd2 (6 h), the DC50 was around 1000 nM; the “Dmax, BromoTag-Brd2” value is on record as below 70%; the hook effect entry is reported as “strong hook effect”. The pDC50 at BromoTag-Brd2 (Ab: Brd2, 6 h) is recorded as 5.7 ± 1.8. The “Dmax (%)” value on BromoTag-Brd2 (setting [2]) is reported as 51%. Besides, the pDC50 at BromoTag-Brd2 (Ab: Brd4^BD2 L387A, 6 h) worked out at 6.1 ± 0.3. In addition, on BromoTag-Brd2 (setting [3]), the “Dmax (%)” value worked out at 69%.
Regarding `Cc1ncsc1-c1ccc([C@H](C)NC(=O)[C@@H]2C[C@@H](O)CN2C(=O)[C@@H](NC(=O)COCCCOCCNC(=O)[C@H](C)[C@@H]2N=C(c3ccc(Cl)cc3)c3c(sc(C)c3C)-n3c(C)nnc32)C(C)(C)C)cc1` (relative stereo) [ME-ARV-771 (20), (2S,4R)-1-((2S,15R*)-(tert-butyl)-15-((S*)-4-(4-chlorophenyl)-2,3,9-trimethyl-6H-thieno[3,2-f][1,2,4]triazolo[4,3-a][1,4]diazepin-6-yl)-4,14-dioxo-6,10-dioxa-3,13-diazahexadecanoyl)-4-hydroxy-N—((S)-1-(4-(4-methylthiazol-5-yl)phenyl)ethyl)pyrrolidine-2-carboxamide], the DC50 at BromoTag-Brd2 (setting [4]) lay within 320 to 400 nM. Also, the pDC50 at BromoTag-Brd2 (Ab: Brd2, 6 h) stood at 6.4 ± 0.6; on BromoTag-Brd2 (Ab: Brd4^BD2 L387A, 6 h) it was 6.5 ± 0.4. Also, the “Dmax (%)” value is reported as 60% at BromoTag-Brd2 (setting [2]) and 70% at BromoTag-Brd2 (setting [3]).
As for `CC[C@@H](C(=O)OCCOCCOCCOCC(=O)N[C@H](C(=O)N1C[C@H](O)C[C@H]1C(=O)NCc1ccc(-c2scnc2C)cc1)C(C)(C)C)[C@@H]1N=C(c2ccc(Cl)cc2)c2c(sc(C)c2C)-n2c(C)nnc21` (relative stereo) [ET-OMZ1 (23), (S)-13-((2S,4R)-4-hydroxy-2-((4-(4-methylthiazol-5-yl)benzyl)carbamoyl)pyrrolidine-1-carbonyl)-14,14-dimethyl-11-oxo-3,6,9-trioxa-12-azapentadecyl (R*)-2-((S*)-4-(4-chlorophenyl)-2,3,9-trimethyl-6H-thieno[3,2-f][1,2,4]triazolo[4,3-a][1,4]diazepin-6-yl)butanoate], the DC50 at BromoTag-Brd2 (setting [4]) was in the range of 13 to 80 nM. In addition, the pDC50 on BromoTag-Brd2 (Ab: Brd2, 6 h) was 7.9 ± 0.2; at BromoTag-Brd2 (Ab: Brd4^BD2 L387A, 6 h), 7.1. Also, the Dmax on BromoTag-Brd2 (HEK293, Ab: Brd4^BD2 L387A, second-generation B&H-PROTACs, 6 h) was 90%; at BromoTag-Brd2 (HEK293, read-out: Dmax, BromoTag-Brd2, 6 h), above 75%. In addition, the hook effect entry on BromoTag-Brd2 (6 h) is given as “strong onset of the hook effect”. The “off-target degradation of untagged Brd2 or the other endogenous BET proteins” value in assay [1] is on record as “no observable off-target degradation”.
